Data on 37 compounds can be found in PubChem BioAssay AID464 (The Scripps Research Institute Molecular Screening Center, 2006).

The CC50 is the concentration that lowers cell viability or growth by half.

Calls of active or inactive are those of the source.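 Rule for the calls: active = Compounds that kill half the cells at a concentration of 5 micromolar or below, from the fitted or estimated CC50; inactive = CC50 above 5 micromolar.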

This test has as its system Jurkat E6.1 viability, ATP luminescence, 48 h. In words: viability loss in Jurkat T cells – cell-based, ATP luminescence, 48 h, 60K MLSMR, cytotoxicity control, dose response (AID 464).
For `COc1ccccc1N1CCN(C(=O)c2c(-c3ccccc3)noc2C)CC1`, the CC50 was 2.92 µM.
Regarding `C=CCN(C(=O)c1ccccc1)c1ccc(OC)cc1`, the CC50 is 9.5 µM (inactive).
As for `CCOc1cc(C#N)c(NC(=O)c2ccco2)cc1OCC`, the 50% cytotoxic concentration (CC50) is 4.31 µM.
As for `CCOc1cc(C(=O)Nc2cnccn2)cc(OCC)c1OCC`, the figure is 6.16 µM (inactive); as for `CC1CN(S(=O)(=O)c2ccc(NC(=O)c3cc(-c4ccccc4O)n[nH]3)cc2)CC(C)O1` (configuration not stated), > 13 µM (inactive); as for `CCCc1[nH]nc2c1C(c1ccc(Br)s1)C(C#N)=C(N)O2` (configuration not stated), > 13 µM (inactive).
As for `CCOC(=O)Nc1cc(=O)c2ccccc2o1`, the figure is > 4.4 µM (inactive); as for `Cc1noc(C)c1CSc1nc2ccccc2nc1NS(=O)(=O)c1ccc(Cl)cc1`, 31.5 µM (inactive).
For the compound `Cc1nn(Cc2ccccc2Cl)c(C)c1C(=O)Nc1nnc(C2CC2)s1`, the CC50 is > 40 µM (inactive).
As for `Cc1cc(C)n(-c2ccc(C(=O)Nc3ccc(S(=O)(=O)NCc4ccco4)cc3)cc2)n1`, the figure is 5.24 µM (inactive); as for `CC1Cc2cc(-c3csc(NC(=O)Cc4cccs4)n3)ccc2N1S(C)(=O)=O` (configuration not stated), 5.23 µM (inactive).
With `Cc1oc(-c2ccccc2Cl)nc1CSCC(=O)N1CCCC1`, the CC50 is > 40 µM (inactive).
As for `Cc1ccc(C(=O)Nc2ccc(Cl)cn2)cc1`, the figure is 4.48 µM; as for `CCOC(=O)N1CCN(C(=O)c2ccccc2-c2ccccc2)CC1`, 1.91 µM.
As for `COc1cc(C(Nc2ccccn2)c2ccc3ccc(C)nc3c2O)cc(OC)c1O` (configuration not stated), the figure is 6.78 µM (inactive); as for `Cc1ccc(-c2csc3ncnc(Sc4nnc(CN5CCCCCC5=O)o4)c23)cc1`, 5.28 µM (inactive); as for `O=C(CC(=O)c1ccccc1O)c1cccc(F)c1`, > 40 µM (inactive).
As for `O=c1c2ccccc2nnn1CSc1nnc(-c2cccs2)n1Cc1ccccc1`, the figure is > 40 µM (inactive); as for `CC(C)c1cc(C(=O)Nc2sc3c(c2C#N)CCC3)no1`, 15.6 µM (inactive).
`Cc1nc(NCc2ccco2)c2c3c(sc2n1)CCC3`: the CC50 is 15.6 µM (inactive).
For `CC1CC(C)CN(S(=O)(=O)c2ccc(C(=O)Nc3nnc(-c4cccs4)o3)cc2)C1` (configuration not stated), the CC50 is 12.9 µM (inactive).
As for `O=C(Nc1nc(-c2ccccn2)cs1)c1ccc(S(=O)(=O)N2CCCCC2)cc1`, the figure is 8.99 µM (inactive).
Take `COC(=O)c1[nH]c2c(c1C)C(=O)CC(c1ccccc1)C2` (configuration not stated): the CC50 is 0.391 µM.
As for `Cc1cc(NC(=O)c2cc(-c3ccncc3)nc3c(C)cccc23)no1`, the figure is 2.29 µM; as for `CCC(C)Oc1ccccc1C1CC(=O)NC2=C1C(=O)CCC2` (configuration not stated), 4.73 µM.
Take `COc1ccc(CC(=O)Nc2nc(C)cs2)cc1OC`: the CC50 was 23.4 µM (inactive).
As for `COc1ccc(OC)c(C(C)NC(=O)c2ccco2)c1` (configuration not stated), the CC50 is 6.24 µM (inactive).
Take `CCN(C)c1ccc(/C=N\n2nnnc2N)cc1`: the CC50 was 4.71 µM.
In the case of `Cc1cc(NC(=O)CSc2nc(-c3ccco3)cc(C(F)(F)F)n2)n(-c2ccccc2)n1`, the half-maximal cytotoxic concentration (CC50) was 4.28 µM.
As for `O=S(=O)(Nc1cccc2ncccc12)c1cccs1`, the figure is 6.36 µM (inactive); as for `O=C(Nc1ccc(N2CCCC2)cc1)c1cccc(F)c1`, 8.17 µM (inactive); as for `N=c1c2c(n(Cc3ccc(Cl)cc3Cl)c3c1CCC3)CCCC2`, 2.26 µM.
Regarding `COc1cc(C2Nc3ccc4ncccc4c3C3=C2C(=O)CCC3)ccc1O` (configuration not stated), the 50% cytotoxic concentration (CC50) was 2.5 µM.
As for `Cc1ccccc1-n1ncc2c(SCC(=O)NCc3cccs3)ncnc21`, the figure is 5.39 µM (inactive); as for `CCOC(=O)C1CCN(CC(=O)Nc2c(C(=O)OC)[nH]c3ccc(Cl)cc23)CC1`, 31.2 µM (inactive); as for `COc1ccc(Nc2nc(N3CCCC3)nc3ccccc23)c(OC)c1`, 21.9 µM (inactive).
For the compound `Cc1cc(NC(=O)CSc2nc(-c3cccs3)cc(C(F)(F)F)n2)no1`, the CC50 was 0.264 µM.
